In patent US20070275936A1, “Formulations and Treatment Methods” (priority 1998, published 2007):

How the values were obtained:
blood cell counts = experiment: Enhancement of hemopoiesis in a human HIV patient; type: in vivo
Description: A human patient infected with the HIV virus was treated with 16α-bromoepiandrosterone (“BrEA”), using a physiological saline formulation containing 10 mg/mL of BrEA in solution, 36% w/v hydroxypropyl-β-cyclodextrin and 20 mg/mL of micronized BrEA in suspension. The patient received two courses of treatment. The first course consisted of subcutaneous injection once per day of 80 mg of BrEA for 10 days. The second course of treatment commenced 74 days later and used the same formulation, except that deuterium oxide replaced water in the formulation. The second treatment course consisted of subcutaneous injection once per day of 80 mg of BrEA for 15 days. The patient's blood parameters were obtained at the start and at the end of each course of treatment.

HCV = HCV level by PCR in HIV/HCV infected patient dosed I.V. with BrEA; type: in vivo; details: predosing 6.5
Description: A patient infected with HIV and HCV was dosed I.V. with BrEA for 3 consecutive days using a formulation that contained 20 mg/mL BrEA in 45% w/v hydroxypropyl-β-cyclodextrin and saline. Four mL of the formulation (80 mg BrEA) was administered to the patient every 4 hours during the 3 day treatment period. The patient's predosing HCV level was 6.5 Log10 as measured by PCR and the HCV level was 6.2 Log10 on the first day of dosing, 5.5 Log10 on the 3rd day of dosing and 4.9 Log10 three days after the last dose was administered. HIV RNA levels as measured by PCR was 5.2 Log10 (predosing), 5.8 Log10 (first day), 5.9 Log10 (third day) and 5.4 Log10 (day 6). The NK cell counts (cells/mm^3) were 28, 41 and 38 at predosing, day 0 and day 3.

[1] = system: pentosephosphate shunt (PPS) activity in normal human RBC; experiment: PPS flux in whole normal human RBC; type: cell-based
Description: The effect of BrEA on pentosephosphate shunt (PPS) activity in normal human RBC was examined using whole cells. Since glucose-6-phosphate dehydrogenase (“G6PD”) is the limiting enzyme of the PPS, PPS flux measurement is considered to better reflect G6PD activity in the whole cell compared to G6PD activity measurement in a cell lysate. […] PPS flux and G6PD activity in the whole RBC depends on a number of factors (the concentration of NADPH, NAD, and ATP, and intracellular pH), which are kept constant if the measurement is performed in the lysate and may vary in the whole RBC. Levels of G6PD activity in cells is considerably above normal basal needs and inhibition of overall G6PD activity might have no or minor consequence on PPS flux in the whole cell. […] A series of experiments were performed using varying amounts of BrEA and PPS flux was measured in unstimulated basal RBC and in methylene-blue (MB)-stimulated RBC.
Different concentrations of BrEA (0.3, 3.5 and 7 micromolar, final) were supplemented to suspensions of washed RBC suspended in RPMI, pH 7.4 at 10% hematocrit, whereby PPS flux was immediately measured without further incubation and without further washings.
In these experiments, different concentrations of BrEA ˜0.8, 8 and 80 micromolar, final) were supplemented to suspensions of washed RBC suspended in RPMI, pH 7.4 at 10% hematocrit. After a 90-min incubation at 37° C. with and without BrEA, PPS flux was measured.

C[C@]12CC[C@H](O)C[C@@H]1CC[C@@H]1[C@@H]2CC[C@]2(C)C(=O)[C@H](Br)C[C@@H]12 [BrEA, 16α-bromo-3β-hydroxy-5α-androstane-17-one]
WBC (blood cell counts; 1st Course end (80 mg s.c. daily 10 days), start 2.38): 2.47e+09 L⁻¹ | basophils (blood cell counts; 1st Course end, start 0.02): 1e+07 L⁻¹ | monocytes (blood cell counts; 1st Course end, start 0.35): 3e+08 L⁻¹ | neutrophils (blood cell counts; 1st Course end, start 0.92): 8e+08 L⁻¹ | CD4+ T cells (blood cell counts; 1st Course end, start 93): 116 mm^−3 | CD16+/56+ NK cells (blood cell counts; 1st Course end, start 186): 348 mm^−3 | T suppressor cells (blood cell counts; 1st Course end, start 344): 452 mm^−3 | WBC (blood cell counts; 2nd Course end (80 mg s.c. daily 15 days), start 3.57): 5.66e+09 L⁻¹ | basophils (blood cell counts; 2nd Course end, start 0.01): 6e+07 L⁻¹ | monocytes (blood cell counts; 2nd Course end, start 0.34): 5.4e+08 L⁻¹ | neutrophils (blood cell counts; 2nd Course end, start 2.02): 3.6e+09 L⁻¹ | CD4+ T cells (blood cell counts; 2nd Course end, start 113): 125 mm^−3 | CD16+/56+ NK cells (blood cell counts; 2nd Course end, start 144): 425 mm^−3 | T suppressor cells (blood cell counts; 2nd Course end, start 351): 513 mm^−3 | HCV level by PCR (HCV; 3rd day of dosing): 5.5 Log10 | HCV level by PCR (HCV; first day of dosing, 80 mg I.V. every 4 hours for 3 days): 6.2 Log10 | HCV level by PCR (HCV; three days after the last dose): 4.9 Log10 | PPS flux ([1]; 0.3 μM, MB stimulated RBC, no incubation, DMSO control 5090): 5000 micromoles/hour/ml RBC | PPS flux ([1]; 0.3 μM, unstimulated RBC, no incubation, DMSO control 270): 250 micromoles/hour/ml RBC | PPS flux ([1]; 0.8 μM, MB stimulated, 90-min incubation, average of 3 experiments, DMSO control 4890): 4930 micromoles/hour/ml RBC | PPS flux ([1]; 0.8 μM, unstimulated, 90-min incubation at 37° C., average of 3 experiments, DMSO control 480): 410 micromoles/hour/ml RBC | PPS flux ([1]; 3.5 μM, MB stimulated RBC, no incubation, DMSO control 5090): 4950 micromoles/hour/ml RBC | PPS flux ([1]; 3.5 μM, unstimulated RBC, no incubation, DMSO control 270): 270 micromoles/hour/ml RBC | PPS flux ([1]; 7 μM, MB stimulated RBC, no incubation, DMSO control 5090): 4660 micromoles/hour/ml RBC | inhibition of MB-stimulated PPS flux ([1]; 7 μM, no incubation): minor inhibition | PPS flux ([1]; 7 μM, unstimulated RBC, no incubation, DMSO control 270): 295 micromoles/hour/ml RBC | PPS flux ([1]; 8 μM, MB stimulated, 90-min incubation, average of 3 experiments, DMSO control 4890): 4430 micromoles/hour/ml RBC | PPS flux ([1]; 8 μM, unstimulated, 90-min incubation, average of 3 experiments, DMSO control 480): 450 micromoles/hour/ml RBC | PPS flux ([1]; 80 μM, MB stimulated, 90-min incubation, average of 3 experiments, DMSO control 4890): 3660 micromoles/hour/ml RBC | PPS flux ([1]; 80 μM, unstimulated, 90-min incubation, average of 3 experiments, DMSO control 480): 450 micromoles/hour/ml RBC | inhibition at 8 µM ([1]; Homo sapiens, 1.5 h, 8 micromolar, 90-min incubation, p=0.006 vs control+DMSO, read-out: Inhibition of MB-stimulated PPS flux): 10% | inhibition at 80 µM ([1]; Homo sapiens, 1.5 h, 80 micromolar, 90-min incubation, p=0.002 vs control+DMSO, read-out: Inhibition of MB-stimulated PPS flux): 25%
